| SMILES | melting point |
| --- | --- |
| CC(C)CCOc1cc(C(=O)O)cc([N+](=O)[O-])c1 | 142 °C |
| COc1ccc(-c2cc(N(Cc3ccc(OCc4ccccc4)cc3)n3cnnc3)ccc2C#N)cc1 | 219 to 221 °C |
| CC(=N)NCCCCCCCCCCCCNC(C)=N | 92 to 97 °C |
| C=Cc1ccc(CSCCO)cc1 | 44 to 45.5 °C |
| COCCOc1cc2c(Nc3cc(OC)c(Cl)cc3Cl)c(C#N)cnc2cc1F | 170 to 172 °C |
| Cn1cc(-c2cc(-c3cnc4c(c3)CC(=O)N4)ccn2)n(-c2ccc(C(C)(C)C#N)cc2)c1=O | 263 °C |
| CC(=O)OC1CCC2(C)C(=CCC3C2CCC2(C=CCl)C(OC(C)=O)CCC32)C1 (stereo not given) | 155 to 156 °C |
| O=C1N[C@H](Cc2cccc(OC(F)(F)C(F)F)c2)[C@H](c2ccc(Oc3ccccc3)cc2)O1 (racemic) | 90 to 91 °C |
| O=C(C1CC1)N1CCCC1Cc1ccc(Cl)cc1 (stereo not given) | 62 to 64 °C |
| NCC(=O)Nc1ccc([N+](=O)[O-])cc1C(=NO)c1ccccc1F | 198 °C |
| O=C(Oc1cc(CBr)ccc1F)c1ccccc1 | 180 to 182 °C |
| O=C(Nc1ccc2cc(CN3CCCC3)cnc2c1)c1ccc(-c2ccc(F)cc2)nc1 | 218 to 220 °C |
| CSC(=N)NS(=O)(=O)CCl | 60 to 62 °C |
| CC(=Cc1ccc(-n2ccnc2)cc1)[N+](=O)[O-] | 119 to 120 °C |
| CC(=O)OC1CSC(Oc2ccnc(Br)c2)C(OC(C)=O)C1OC(C)=O (stereo not given) | 162 °C |
| COC(=O)[C@H]1CC[C@H](Oc2ccc(C(=O)O)cc2)CC1 | 162 °C |

Second part, the molecule after the results:

| melting point | SMILES |
| --- | --- |
| 168 to 169 °C | COCCOc1ccc(/C=C/C(=O)NS(=O)(=O)c2ccccc2Cl)c(Oc2ncc(C(F)(F)F)cc2Cl)c1 |
| 127 to 128 °C | CCOC(=O)c1cn(C2COC2)c2c(F)c(F)c(F)c(NCc3ccccc3)c2c1=O |
| 195 to 207 °C | Cc1cc2c3c(cc(C)c2[nH]c1=O)C(C)C(C(C)N)O3 (stereo not given) |
| 209 °C | Cc1cc(C)nc(C(N)=NO)n1 |
| 46 to 47 °C | CC(C)(Cc1ccc(Cl)cc1)C(O)(COc1ccc(Cl)cc1)c1cccnc1 (stereo not given) |
| 190 to 193 °C | Cn1nncc1COc1nn2c(-c3ccccc3)nnc2cc1-c1ccccc1 |
| 183 to 184 °C | Cc1cccc(-c2nc(O)c(C)s2)c1Cl |
| 74 to 77 °C | O=C(NC1CC1)c1nccnc1Oc1cccc(C(F)(F)F)c1 |
| 142 to 144 °C | CC(=O)OC1=CC(NC(=O)CCc2ccc(Cl)cc2Cl)C(=O)N(C)c2ccccc21 (stereo not given) |
| 266 to 268 °C | Nc1nc(Nc2ccc([N+](=O)[O-])cc2)sc1C(=O)c1ccccc1[N+](=O)[O-] |
| 194 to 195 °C | CC(=O)Nc1nc2c(Oc3cc(-c4ccc(C(F)(F)F)cc4NC(=O)OC(C)(C)C)ncn3)cccc2s1 |
| 117 °C | CC(C)(C)OC(=O)n1cnc2c(N)cccc21 |
| 93 to 94 °C | COc1cccc(-c2nc3c(C(N)=O)cccc3[nH]2)c1 |
| 193 °C | Cc1nnc2ccc(-c3cccc(N)c3)nn12 |
| 36 °C | O=C(Cl)Oc1ccc(-c2ccccc2)cc1 |
| 214 to 216 °C | Cc1ccc(C#CCOCCn2cnc3c(N)nc4ccccc4c32)cc1C |
| 208 °C | CC(C)(C)c1cc(Cc2cc(C(C)(C)C)cc(C(C)(C)C)c2O)c(O)c(-n2nc3ccccc3n2)c1 |
| 276 to 279 °C | O=c1[nH]c2cc(Cl)cc(Cl)c2c(=O)n1Cc1cccc(Cl)c1 |
| 151 to 153 °C | O=C(c1ccccc1)c1nc2ncccc2o1 |
| 106 to 108 °C | CC(C)Cc1ccc(C(CC(=O)O)C(=O)O)s1 (stereo not given) |
| 205 to 207 °C | Cc1cc(C(O)(C(F)(F)F)C(F)(F)F)cc(C)c1NCC(N)=O |
| 46 to 50 °C | Cc1ccc(-c2noc(CC(F)=C(F)F)n2)cc1 |
| 208 to 210 °C | CCc1c(C(=O)OC(C)C)ncc2[nH]c3ccc4sc(NC(C)=O)nc4c3c12 |
| 130 °C | COC1(c2nc(Br)c(Sc3ccc(/C(C)=N/O)cc3)s2)CCOCC1 |

Reference: a melting point compilation (Tetko et al.; mined from patent text by program, amines drawn as free bases though some values may be those of a salt)
